This note sets out measurements from patent publication US6365602B1, “N-substituted naphthalene carboxamides as neurokinin-receptor antagonists” (Astra Zeneca AB, priority 1998, dated 2002).

In data set [1] the target is T1, NK1 receptor (Oryctolagus cuniculus, UniProt G1SEI7).
T1 construct: Paired tissue segments of pulmonary artery excised from male New Zealand white rabbits; from tissue; host or cells: rabbit pulmonary artery segments
Description: Rabbit Pulmonary Artery: NK1 in vitro functional assay (Test D). Type of data set: cell-based. The following applies: relaxation to agonist ASMSP, negative log apparent dissociation constant, read-out: NK1pKb (converted). The text has this: Rabbit Pulmonary Artery: NK1 in vitro functional assay (Test D)
The ability of a Compound of the invention to antagonize the action of the agonist Ac-[Arg^6, Sar^9, Met(O2)^11] […] Am. J. Physiol. 268: L152-L159, 1995.
Paired tissue segments of pulmonary artery excised from male New Zealand white rabbits are suspended between stainless steel stirrups for analyses of isometric relaxation under standard conditions in physiological salt solution (PSS) containing indomethacin (5 microM; to block cyclooxygenase) and propranolol (1 microM; to block β adrenergic receptors).
Initial tension placed on each tissue is 2 grams, which is maintained throughout the 1.0 hour equilibration period. Tissues are washed with PSS at 15 minute intervals. At the 30 and 45 minute wash the following treatments are added: Thiorphan (1 microM; to block E.C.3.4.24.11), ((3R)-3-[(1S)-1-(3,4-Dichlorophenyl)-3-(4-[(R or S)-2-methylsulfinyl-phenyl]-piperidino)propyl]-2-ethyl-2,3-dihydroisoindol-1-one) (0.03 microM; to block NK^2 receptors as described in: “Aharony D., et al. Pharmacological Characterization of ZD7944: A Novel, Potent and orally-Active Non-Peptide Neurokinin-A (NK-2) Receptor Antagonist Eur. Respir. J. 12 (Suppl. 12):20S, 1998”), and the given concentration of the Compound being tested. After equilibration, phenylephrine (3 microM) is added to produce steady-state contraction of the tissue and a dose relaxation curve to ASMSP is constructed. […]
For antagonists behaving in a noncompetitive manner, the percent inhibition of relaxation is determined at a given concentration of the antagonist. Percent inhibition is determined when a tested Compound produces a statistically significant reduction of the magnitude of maximum relaxation and is calculated as a percentage of the papaverine reference response For antagonists behaving competitively, potencies are determined by calculating the negative log value of the apparent dissociation constant (pKB) for each concentration tested. Statistical significance is determined when the P value is <0.05 using the Student's t-test for paired comparisons.

For data set [2], the target named is T2, NK2 receptor (Oryctolagus cuniculus, UniProt P79218).
T2 construct: Left and right pulmonary arteries are excised from male New Zealand white rabbits; from tissue; host or cells: rabbit pulmonary artery ring segments, endothelium removed
T2 sequence (P79218 1-384): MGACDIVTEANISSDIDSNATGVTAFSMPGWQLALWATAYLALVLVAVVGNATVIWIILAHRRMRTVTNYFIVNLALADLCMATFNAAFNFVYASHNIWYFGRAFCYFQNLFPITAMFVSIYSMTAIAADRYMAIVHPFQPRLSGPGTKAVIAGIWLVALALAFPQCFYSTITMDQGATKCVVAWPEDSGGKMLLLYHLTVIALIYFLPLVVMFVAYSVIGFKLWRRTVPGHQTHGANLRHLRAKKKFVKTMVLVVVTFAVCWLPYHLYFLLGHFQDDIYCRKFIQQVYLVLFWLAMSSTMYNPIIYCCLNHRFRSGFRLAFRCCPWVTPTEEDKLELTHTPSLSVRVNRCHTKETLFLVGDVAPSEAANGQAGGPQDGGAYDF
Description: NK2 in vitro functional assay (Test E), rabbit pulmonary artery. Particulars: contraction to agonist BANK, negative log apparent dissociation constant, read-out: NK2pKb (converted). Type of data set: cell-based. The text has this: NK2 in vitro functional assay (Test E)
The ability of a Compound of the invention to antagonize the action of the agonist [β-ala^8] […] Am. J. Physiol. […] Left and right pulmonary arteries are excised from male New Zealand white rabbits. The pulmonary arteries are cut into ring segments and the intimal surface rubbed gently to remove the endothelium. Paired tissue segments of pulmonary artery are suspended between stainless steel stirrups for analyses of isometric tension development under standard conditions in physiological salt solution (PSS) containing indomethacin, (5 microM; to inhibit cyclooxygenase).
Initial tension placed on each tissue is 2 grams, which is maintained throughout the 45 minute equilibration period. Tissues are washed with PSS at 15 minute intervals. After the 45 minute equilibration period, 3×10^−2M KCl is applied for 60 minutes to test tissue viability. The tissues are then washed extensively for 30 minutes. The concentration of the Compound being tested is then added for 30 minutes before constructing a cumulative concentration-response curve with BANK. The curve is considered complete when each tissue fails to contract further for 2 consecutively increasing BANK concentrations. BaCl2 (3×10^−2M ) is then added to produce a maximum reference contraction.
Percent inhibition is determined when a tested Compound produces a statistically significant reduction in the magnitude of maximum contraction and is calculated as a percentage of the BaCl2 reference response. For antagonists behaving competitively, potencies are determined by calculating the negative log value of the apparent dissociation constant (pKB) for each concentration tested. Statistical significance is determined when the P value is <0.05 using the Student's t-test for paired comparisons.
(§1) NK1 and NK2 in vivo functional assay (Test F)

For data set [3], the target named is T3, NK1 receptors (Cavia porcellus, UniProt P30547).
T3 construct: from tissue; host or cells: whole anesthetized guinea pig (airways, in vivo)
T3 sequence (P30547 whole entry): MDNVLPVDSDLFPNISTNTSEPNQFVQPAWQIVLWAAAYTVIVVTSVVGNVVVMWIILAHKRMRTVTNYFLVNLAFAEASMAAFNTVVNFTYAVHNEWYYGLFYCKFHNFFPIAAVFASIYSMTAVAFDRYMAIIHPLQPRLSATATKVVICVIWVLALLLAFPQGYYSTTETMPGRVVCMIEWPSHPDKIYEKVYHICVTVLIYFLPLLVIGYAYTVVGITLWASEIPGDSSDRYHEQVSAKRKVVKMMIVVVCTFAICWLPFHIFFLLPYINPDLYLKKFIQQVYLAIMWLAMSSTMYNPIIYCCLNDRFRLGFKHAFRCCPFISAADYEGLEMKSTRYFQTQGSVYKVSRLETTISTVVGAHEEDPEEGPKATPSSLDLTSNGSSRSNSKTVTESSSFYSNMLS
The data set is described as follows: NK1 in vivo functional assay (Test F), ASMSP-induced bronchoconstriction. The following applies: anesthetized guinea pig, agonist ASMSP, Dose Ratio of ED50 in presence/absence of antagonist. The procedure:
as §1
(§2) Exp. Ther., 1993, Vol 267(3), pp 1168-1175. The assay is carried out as follows.
(§3) Compounds are tested in anesthetized guinea pigs pretreated with i.v. indomethacin (10 mg/kg, 20 min.), propranolol (0.5 mg/kg, 15 min.), and thiorphan (10 mg/kg, 10 min).
(§4) […] The agonists used in these studies are ASMSP (Ac-[Arg^6, Sar^9, Met(O2)^11]-SP(6-11)) and BANK (β-ala-8 NKA4-10).
(§5) Administered i.v., ASMSP is selective for NK1 receptors, and BANK is selective for NK2 receptors. Maximum response is defined as zero conductance (GL, 1/Rp). ED50 values are calculated (the dose of agonist resulting in a reduction of GL to 50% of baseline), and converted to the negative logarithm (−logED50). The ED50 values, obtained in the presence (P) and absence (A) of antagonist, are used to calculate a Dose Ratio (P/A), an expression of potency. Data are expressed as mean±SEM and statistical differences were determined using ANOVA/Tukey-Kramer and Student's t-test, with p<0.05 considered statistically significant.

Data set [4] concerns the target T4, NK2 receptors (Cavia porcellus, UniProt Q64077).
T4 construct: from tissue; host or cells: whole anesthetized guinea pig (airways, in vivo)
T4 sequence (Q64077 1-402): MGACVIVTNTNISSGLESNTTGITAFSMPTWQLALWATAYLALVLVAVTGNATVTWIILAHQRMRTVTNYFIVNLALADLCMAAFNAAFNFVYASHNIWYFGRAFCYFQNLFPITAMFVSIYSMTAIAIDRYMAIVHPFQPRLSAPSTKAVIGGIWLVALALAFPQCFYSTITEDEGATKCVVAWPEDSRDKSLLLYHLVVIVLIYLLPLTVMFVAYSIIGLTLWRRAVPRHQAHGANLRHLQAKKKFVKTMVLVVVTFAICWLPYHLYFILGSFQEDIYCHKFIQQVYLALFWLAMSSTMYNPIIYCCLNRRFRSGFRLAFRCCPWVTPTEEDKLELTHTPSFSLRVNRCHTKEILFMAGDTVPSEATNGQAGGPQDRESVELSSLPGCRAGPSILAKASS
The data set is described as follows: NK2 in vivo functional assay (Test F), BANK-induced bronchoconstriction. The following applies: anesthetized guinea pig, agonist BANK, Dose Ratio of ED50 in presence/absence of antagonist. As for the experimental part:
as §1, §2, §3, §4, §5

The structures appear in SMILES notation. Where a name gives a salt, the structure may show the parent alone.

T1 sequence (G1SEI7 1-407): as the sequence (P30547 whole entry) above, with G176S, S186E, A329G, F342L, D368E, P369A, T376N, V395M, S399F counted along it

`CN(C[C@@H](CCN1CCC(c2ccc([S+](C)[O-])c(F)c2)CC1)c1ccc(Cl)c(Cl)c1)C(=O)c1cc(C#N)cc2ccccc12` (stereo partly drawn) (as salt: hydrochloride) [Example 60, N-[(S)-2-(3,4-Dichlorophenyl)-4-[4-[3-fluoro-4-methylsulfinylphenyl]-1-piperidinyl]butyl]-N-methyl-3-cyano-1-naphthamide] yielded a melting point of 175 to 180 °C.
As to `CN(C[C@@H](CCN1CCC(c2ccccc2[S@+](C)[O-])CC1)c1ccc(Cl)c(Cl)c1)C(=O)c1cc(C#N)cc2ccccc12` [Example 1, N-[(S)-2-(3,4-Dichlorophenyl)-4-[4-[(S)-2-methylsulfinylphenyl]-1-piperidinyl]butyl]-N-methyl-3-cyano-1-naphthamide], the results for the Kd in data set [1] and in data set [2] were 1.02 nM and 5.5 nM, respectively. Moreover, the “NK1 P/A” value in data set [3] (2 hr) was 32.5 (2 hr). Moreover, the “NK2 P/A” value in data set [4] (2 hr) was 21.4 (2 hr).
Take `COc1ccc(C2CCN(CC[C@H](CN(C)C(=O)c3cc(C#N)cc4ccccc34)c3ccc(Cl)c(Cl)c3)CC2)c([S@+](C)[O-])c1.O=C(O)CC(O)(CC(=O)O)C(=O)O` [Example 2, N-[(S)-2-(3,4-Dichlorophenyl)-4-[4-{4-methoxy-(S)-2-methylsulfinylphenyl}-1-piperidinyl]butyl]-N-methyl-3-cyano-1-naphthamide Citrate]: the Kd in data set [1] is 7.94 nM; in data set [2], 2 nM. Besides, the “NK1 P/A” value in data set [3] (2 hr) is given as 25.0 (2 hr). Moreover, the “NK2 P/A” value in data set [4] (2 hr) was 83.0 (2 hr).
On to `CN(C[C@@H](CCN1CCC(N2CCCNC2=O)CC1)c1ccc(Cl)c(Cl)c1)C(=O)c1cc(C#N)cc2ccccc12` [Example 36, N-[(S)-2-(3,4-Dichlorophenyl)-4-[4-[tetrahydro-2-oxo-1(2H)-pyrimidinyl]-1-piperidinyl]-butyl]-N-methyl-3-cyano-1-naphthamide Citrate Hydrate (1:1:1.5)], for which the Kd in data set [1] was 7.41 nM; in data set [2], 13.8 nM. Moreover, the “NK1 P/A” value in data set [3] (1 hr) is recorded as 45.0 (1 hr). For the same compound, the “NK2 P/A” value in data set [4] (1 hr) is 20.6 (1 hr).
For the compound `CCN(C[C@@H](CCN1CCC(c2ccccc2[S@+](C)[O-])CC1)c1ccc(Cl)c(Cl)c1)C(=O)c1cc(C#N)cc2ccccc12` [Example 69, N-[(S)-2-(3,4-Dichlorophenyl)-4-[4-[(S)-2-methylsulfinylphenyl]-1-piperidinyl]butyl]-N-ethyl-3-cyano-1-naphthamide], the melting point was 115 to 118 °C (dec.).
